Results on 26 compounds are retold here after ChEMBL document CHEMBL6134853, “Design, Synthesis, and Biological Evaluation of Pyrrolo[1,2-a]quinoxalin-4(5H)-one Derivatives as Potent and Orally Available Noncovalent Bruton's Tyrosine Kinase (BTK) Inhibitors” (J Med Chem, 2025).

Broadly, the IC50 is the midpoint of a concentration-inhibition curve. A word on the solubility: it is the dissolved amount per volume that the medium holds. One may read the AUC(0-t) as the area under the concentration-time curve up to a stated or last time point. A higher AUC(0-t) goes with more exposure. In general, MRT last refers to the average time that molecules of a dose stay in the body. The Tmax is the time at which the peak concentration occurs. The term Cmax denotes the maximum level reached in the sampled fluid or tissue.

In brackets after ≈: the same amount, converted by molar mass.

In data set [1] the target is Tyrosine-protein kinase BTK (Homo sapiens, UniProt Q06187). Description: Inhibition of BTK (unknown origin) by HTRF analysis. (In TR-FRET formats the signal depends on donor and acceptor labels being close together.)
Sequence of Tyrosine-protein kinase BTK (Q06187 whole entry): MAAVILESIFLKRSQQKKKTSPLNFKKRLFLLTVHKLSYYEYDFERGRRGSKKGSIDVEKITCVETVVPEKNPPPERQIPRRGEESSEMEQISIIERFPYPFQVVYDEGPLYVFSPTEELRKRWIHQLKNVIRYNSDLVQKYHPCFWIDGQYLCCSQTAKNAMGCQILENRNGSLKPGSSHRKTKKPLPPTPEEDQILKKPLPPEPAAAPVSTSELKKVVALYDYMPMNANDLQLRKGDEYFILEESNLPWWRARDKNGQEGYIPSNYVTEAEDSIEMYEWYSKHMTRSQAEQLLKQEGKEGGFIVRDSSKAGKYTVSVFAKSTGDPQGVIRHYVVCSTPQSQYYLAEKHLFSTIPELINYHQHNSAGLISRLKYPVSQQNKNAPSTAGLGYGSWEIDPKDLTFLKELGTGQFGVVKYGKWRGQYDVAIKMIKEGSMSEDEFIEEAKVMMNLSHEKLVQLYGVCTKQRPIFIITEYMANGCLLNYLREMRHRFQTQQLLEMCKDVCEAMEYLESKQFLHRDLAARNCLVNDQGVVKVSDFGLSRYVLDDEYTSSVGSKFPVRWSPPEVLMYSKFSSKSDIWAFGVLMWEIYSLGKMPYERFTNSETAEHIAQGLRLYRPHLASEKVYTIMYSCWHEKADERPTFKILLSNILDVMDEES
Data set [2] concerns U-937. The data set can be described thus: Antiproliferative activity against human U-937 cells expressing BTK assessed as inhibition of cell proliferation incubated for 48 hrs by CCK-8 assay. The data set is classed as functional, cell-based. The note with it: U-937, 48 h. Background: Formazan colour is commonly taken as a measure of viable cells.
The next data set has as its system Ramos. Description: Antiproliferative activity against human Ramos cells expressing BTK assessed as inhibition of cell proliferation incubated for 48 hrs by CCK-8 assay. The data set is classed as functional, cell-based.
A short description of data set [3]: Aqueous solubility of compound in PBS buffer at pH 7.4 by HPLC analysis. The data set is classed as physicochemical.
The nature of data set [4]: AUC (0 to t) in male Sprague-Dawley rat at 10 mg/kg, po measured up to 24 hrs by LC-MS/MS analysis. The data set is classed as ADME, organism-based. As to conditions: in vivo.
For data set [5], the system named is U-937. The data set can be described thus: Antitumor activity against human U-937 cells xenografted in BALB/c mouse assessed as tumor growth inhibition at 50 mg/kg, po administered once a day for 14 days. The data set is classed as functional. The note with it: U-937, 336 h, time 14 day, read-out: TGI. (In general: In xenograft studies the graft and the host belong to different species.)

A short description of data set [6]: MRT (0 to 5 hrs) in male Sprague-Dawley rat at 10 mg/kg, po measured up to 5 hrs by LC-MS/MS analysis. The note with it: in vivo. The data set is classed as ADME, organism-based.
Data set [7] is described as follows: AUC (0 to 5 hrs) in male Sprague-Dawley rat at 10 mg/kg, po measured up to 5 hrs by LC-MS/MS analysis. The data set is classed as ADME, organism-based. As to conditions: in vivo.
The nature of data set [8]: Metabolic stability in rat liver microsome measured for 60 mins by UHPL-UV-HRMS analysis. The data set is classed as ADME. As to conditions: microsomes, 1 h.
The nature of data set [9]: Tmax in male Sprague-Dawley rat at 10 mg/kg, po measured up to 5 hrs by LC-MS/MS analysis. The data set is classed as ADME, organism-based. The note with it: in vivo.
Data set [10] in a line: Cmax in male Sprague-Dawley rat at 10 mg/kg, po measured up to 5 hrs by LC-MS/MS analysis. The data set is classed as ADME, organism-based. The note with it: in vivo.

`Cc1c(-c2ccc3c(=O)[nH]c4cc(C(C)(C)O)ccc4n23)cc(F)cc1-n1c(=O)[nH]c2c(F)cccc2c1=O`: the IC50 in data set [1] is 17.3 nM; with U-937 [2], 12 µM; in the data set with Ramos it was 23.7 µM.

In [1], `Cc1c(-c2ccc3c(=O)[nH]c4cc(C(C)(C)O)ccc4n23)cccc1N1CC(=O)Nc2c(F)cccc2C1=O` came in with an IC50 of 36.8 nM. For the same compound, the solubility in data set [3] turned out to be 6.3 µg/mL (≈ 12 µM).

`Cc1c(-c2ccc3c(=O)[nH]c4cc(C(C)(C)O)ccc4n23)cccc1-n1c(=O)oc2c(F)cccc2c1=O`: the midpoint of inhibition in [1], the IC50, lay at 54.2 nM.

For `Cc1c(-c2ccc3c(=O)[nH]c4cc(C(C)(C)O)ccc4n23)cccc1N1C(=O)c2cccc(F)c2C1=O`, the IC50 in data set [1] is 22.1 nM; with U-937 [2] it was greater than 40 µM; in the data set with Ramos it was greater than 40 µM.

`Cc1c(-c2ccc3c(=O)[nH]c4cc(C(C)(C)O)ccc4n23)cccc1-n1c(=O)[nH]c2c(F)cc(F)cc2c1=O`: the IC50 in data set [1] was 7.2 nM; with U-937 [2], greater than 40 µM; in the data set on Ramos, 35.6 µM.

Turning to `Cc1c(NC(=O)c2cccc(F)c2N)cccc1-c1ccc2c(=O)[nH]c3cc(C(C)(C)O)ccc3n12`, in [1], half-maximal inhibition (IC50) required 49.2 nM.

`CC(C)(O)c1ccc2c(c1)[nH]c(=O)c1ccc(-c3cccc(-n4c(=O)[nH]c5c(F)cccc5c4=O)c3)n12` showed an IC50 in data set [1] of 73.7 nM.

In data set [1], `Cc1c(-c2c(C#N)cc3c(=O)[nH]c4cc(C(C)(C)O)ccc4n23)cccc1-n1c(=O)[nH]c2c(F)cccc2c1=O` yielded an IC50 greater than 1000 nM.

On to `CC(C)(O)c1ccc2c(c1)[nH]c(=O)c1ccc(-c3cccc(-n4c(=O)[nH]c5c(F)cccc5c4=O)c3CO)n12`, for which the IC50 in data set [1] is 15 nM; with U-937 [2], greater than 40 µM; in the data set on Ramos, greater than 40 µM. Besides, the solubility in [3] worked out at 8.4 µg/mL (≈ 16 µM).

Regarding `Cc1c(-c2ccc3c(=O)[nH]c4cc(C(C)(C)O)ccc4n23)cccc1N1CNc2c(F)cccc2C1=O`, the IC50 stood at 18.1 nM in data set [1], 15.9 µM with U-937 [2] and 16.8 µM in the data set on Ramos.

As to `Cc1c(-c2ccc3c(=O)[nH]c4cc(C(C)(C)O)ccc4n23)cccc1-n1c(=O)[nH]c2cc(C3CC3)ccc2c1=O`, the half-inhibitory concentration (IC50) in data set [1] turned out to be 16.8 nM; in the data set with U-937 [2], 13.8 µM; in the data set with Ramos, 8.7 µM.

Consider `Cc1c(-c2ccc3c(=O)[nH]c4cc(C(F)F)ccc4n23)cccc1-n1c(=O)[nH]c2c(F)cccc2c1=O`, for which the IC50 in data set [1] was determined as 53.6 nM.

In the case of `Cc1c(-c2ccc3c(=O)[nH]c4cc(C(C)(C)O)ccc4n23)cccc1-n1c(=O)[nH]c2c(F)cccc2c1=O`, the values for the IC50 (in [1]; with U-937 [2]; in the data set on Ramos) were 8.3 nM, 11.6 µM and 19.9 µM, respectively. For the same compound, in [3], the solubility was found to be 1.1 µg/mL (≈ 2.15 µM). Besides, the exposure AUC(0-t) at 24 h in data set [4] was 51.9 ng·h/mL. For the same compound, in the data set with U-937 [5], the inhibition in vivo at 50 mg/kg came out at 28.7%. This compound also registered a mean residence time (MRT last) at 5 h in [6] of 1.02 h. In data set [7], this compound displayed an area under the curve AUC(0-t) at 5 h of 39.7 ng·h/mL. The Stability result in data set [8] is reported as “Stable”. In data set [9], the Tmax is 1 h. The compound also returned a Cmax in data set [10] of 14.2 ng/mL.

As to `Cc1c(-c2c(F)cc(C(N)=O)c3[nH]c4c(c23)CC[C@H](C(C)(C)O)C4)cccc1-n1c(=O)c2cccc(F)c2n(C)c1=O` [BMS-986142], the concentration for half-maximal inhibition (IC50) turned out to be 0.42 nM in data set [1], 9.3 µM in the data set with U-937 [2] and 13.6 µM in the data set with Ramos.

`CC(C)(O)c1ccc2c(c1)[nH]c(=O)c1ccc(-c3cccc(-n4c(=O)[nH]c5c(F)cccc5c4=O)c3C(F)F)n12`: the values for the IC50 (in data set [1]; in the data set with U-937 [2]; with Ramos) were 10.7 nM, 12.5 µM and greater than 40 µM, respectively.

Compound `Cc1c(-c2ccc3c(=O)[nH]c4cc(C(F)(F)F)ccc4n23)cccc1-n1c(=O)[nH]c2c(F)cccc2c1=O` had an IC50 in data set [1] of 60.7 nM.

As for `C=CC(=O)N1CCC[C@@H](n2nc(-c3ccc(Oc4ccccc4)cc3)c3c(N)ncnc32)C1` [IBRUTINIB], the IC50 is 3.7 µM in the data set with U-937 [2] and 15.1 µM in the data set on Ramos. Further, the inhibition in vivo at 50 mg/kg in the data set with U-937 [5] worked out at 41.1%.

Turning to `Cc1c(-c2ccc3c(=O)[nH]c4cc(CN5CCOCC5)ccc4n23)cccc1-n1c(=O)[nH]c2c(F)cccc2c1=O`, the IC50 in [1] amounted to 33.4 nM.

As to `Cc1c(-c2ccc3c(=O)[nH]c4cc(C(C)(C)O)ccc4n23)cccc1-n1c(=O)[nH]c2cccc(F)c2c1=O`, the half-inhibitory concentration (IC50) in [1] came out at 12.1 nM; in the data set on U-937 [2], 6.2 µM; in the data set with Ramos, 17.9 µM.

`Cc1c(-c2ccc3n2Cc2ccc(C(C)(C)O)cc2NC3=O)cccc1-n1c(=O)[nH]c2c(F)cccc2c1=O` showed an IC50 in [1] greater than 1000 nM. Also, in [3], the solubility was less than 0.5 µg/mL.

Take `Cc1c(-c2ccc(C(N)=O)n2-c2ccc(C(C)(C)O)cc2)cccc1-n1c(=O)[nH]c2c(F)cccc2c1=O`: in data set [1], the half-inhibitory concentration (IC50) is greater than 1000 nM. The concentration in solution in data set [3] (solubility) was 30.6 µg/mL (≈ 59.7 µM).

In turn, `Cc1c(-c2cc(CO)c3c(=O)[nH]c4cc(C(C)(C)O)ccc4n23)cccc1-n1c(=O)[nH]c2c(F)cccc2c1=O` came in with a half-inhibitory concentration (IC50) in data set [1] of 327 nM. The same compound registered a solubility in data set [3] of 5.5 µg/mL (≈ 10.2 µM).

Regarding `Cc1cc2c(=O)[nH]c3cc(C(C)(C)O)ccc3n2c1-c1cccc(-n2c(=O)[nH]c3c(F)cccc3c2=O)c1C`, the values for the IC50 (in data set [1]; with U-937 [2]; in the data set with Ramos) were 11 nM, 6 µM and 15 µM, respectively. This compound returned a mean residence time MRT last at 5 h in data set [6] of 1.17 h. The AUC(0-t) at 5 h in [7] turned out to be 8.45 ng·h/mL. The Tmax in data set [9] is 1 h. Besides, in data set [10], the concentration peaked (Cmax) at 5.16 ng/mL.

For `[2H]C([2H])([2H])C(O)(c1ccc2c(c1)[nH]c(=O)c1ccc(-c3cccc(-n4c(=O)[nH]c5c(F)cccc5c4=O)c3C)n12)C([2H])([2H])[2H]`, the IC50 in [1] came to 12.4 nM; in the data set on U-937 [2], 13.3 µM; with Ramos, 19 µM. Moreover, the MRT last at 5 h in data set [6] amounted to 2.05 h. In data set [7], the AUC(0-t) at 5 h came to 31.1 ng·h/mL. The time to peak (Tmax) in [9] amounted to 0.5 h. Moreover, the highest level in [10] (Cmax) was 10.4 ng/mL.

In the case of `Cc1c(-c2ccc3c(=O)[nH]c(-c4ccc(C(C)(C)O)cc4)cn23)cccc1-n1c(=O)[nH]c2c(F)cccc2c1=O`, half-maximal inhibition in data set [1] (IC50) was put at 64.8 nM. This compound also yielded a solubility in data set [3] of less than 0.5 µg/mL.

Consider `Cc1c(-c2c(F)cc3c(=O)[nH]c4cc(C(C)(C)O)ccc4n23)cccc1-n1c(=O)[nH]c2c(F)cccc2c1=O`, for which the values for the 50% inhibitory concentration (IC50) (in [1]; in the data set with U-937 [2]; with Ramos) were 5.8 nM, greater than 40 µM and greater than 40 µM, respectively.
